Reference: patent US8927254B2 (priority 2010, dated 2015)
≈ marks a conversion by molar mass, not a printed value. Like-named read-outs stand apart in the source and are kept apart here.

What was measured:
[1] = tested on: P. furiosus trp deletion strains; assay type: cell-based, Pyrococcus furiosus
P. furiosus = assay: microbe, parasite or virus in culture; assay type: cell-based; conditions: Pyrococcus furiosus

Row | SMILES | sensitivity to 5-FAA ([1]; trpAB deletion strain, tight tryptophan auxotroph) | sensitivity to 5-FAA ([1]; trpE or trpD deletion strains, leaky tryptophan auxotrophs) | sensitivity to 5-FAA ([1]; trpF (PF1707) pop-out deletion strain, leaky auxotroph) | MIC (P. furiosus)
1 | Nc1ccc(F)cc1C(=O)O [5-FAA, 5-fluoroanthranilic acid] | not sensitive | not sensitive | not sensitive | –
2 | O=C(O)c1[nH]c(=O)[nH]c(=O)c1F [5-FOA, 5-fluoroorotic acid] | – | – | – | 8 mM (≈ 1390 µg/mL)
3 | CCC(C)(C)C(=O)O[C@H]1C[C@@H](C)C=C2C=C[C@H](C)[C@H](CC[C@@H]3C[C@@H](O)CC(=O)O3)[C@H]21 [simvastatin] | – | – | – | 0.01 to 0.024 mM (≈ 4.19 to 10 µg/mL)
